# Measurements: patent US10954269B2, “Anti-inflammatory tripeptides” (Dr. August Wolff Gmbh & Co. KG Arzneimittel, priority 2013, dated 2021)
# [ ]: non-standard residue; d: D form. Aib = CC(C)(N)C(=O)O
# Assays:
# primary human T cells = assay: Gene expression of pro-inflammatory cytokines (RT-qPCR) in primary human T cells; type: cell-based; conditions: RT-qPCR
# Source text: (§1) Cells were activated with PMA/Ionomycin and treated with PBS, α-MSH, K(D)PT and Examples 3, 8 and 9, respectively, at a concentration of 10^−9 M. Values are normalized to β-actin and are shown relative to the gene expression in PBS-stimulated cells.
# (§2) Primary T-cells were isolated from peripheral blood from healthy volunteers and from secondary lymphatic organs from naïve C57BL/6 mice, respectively. The cells were stimulated with phorbol-12-myristate-13-acetate (PMA)/Ionomycin and interferon-gamma (IFN-γ), respectively, for 48 h to activate the cells. The activated cells release pro-inflammatory cytokines. In parallel a human (HaCaT) keratinocyte cell line was activated with PMA/Ionomycin and IFN-γ, respectively, too. […] At the same time release of anti-inflammatory IL-10 was inhibited. Two days after addition of PMA/Ionomycin and IFN-γ, respectively, the induction of IL-1 secretion was determined in the supernatant for proving that the cells are activated. […] The anti-inflammatory properties of the tripeptides were determined 48 h and 72 h following stimulation. A 13-plex-system based FACS analysis was used for showing the reduced secretion of pro-inflammatory cytokines in the supernatant. Data for IL-1, IL-2, IL-6, IL-12p70 IL-17, IFN-γ and TNF-α are considered to be most relevant. Thus, analysis of the anti-inflammatory properties of the tripeptides is preferably based on the results obtained for these analytes. […] Using this method the gene expression of pro-inflammatory markers like IL-6, IL-17, IFN-γ and TNF-α was determined.
# (§3) In a third experiment murine and human T cells and HaCaT cells were stimulated with PMA/Ionomycin and treated with Examples 14, 15, 16 and 17 at 10^−7 M, 10^−9 M and 10^−11 M. Cytokine concentrations (IFN-γ, IL-17 and IL-10 for T cells and IFN-γ for HaCat) were assessed in the supernatants using the Luminex technology. Expression of genes coding for Il-1β, IL-6 and TNF-α was determined. […] Moreover, concentrations of pro-inflammatory cytokines IFN-γ and IL-17 was reduced in the supernatants whereas the concentration of anti-inflammatory cytokine IL-10 was increased.
# [1] = system: human keratinocytes (HaCaT); assay: Gene expression of pro-inflammatory cytokines (RT-qPCR) in human keratinocytes (HaCaT); type: cell-based; conditions: HaCaT keratinocytes; RT-qPCR
# Source text: as §1, §2, §3
# primary murine T cells = assay: Gene expression of pro-inflammatory cytokines (RT-qPCR) in primary murine T cells; type: cell-based, C57BL/6 mice; conditions: RT-qPCR
# Source text: as §1, §2, §3
# C57BL/6 mice = assay: DSS-induced colitis in mice; type: in vivo; conditions: i.p.
# Method: Colitis is induced by treatment of C57BL/6 mice with 2.5% dextran sulfate (DSS) in the drinking water for 7 days. Mice are treated with the test item. Weight is monitored daily. At day 8 mice are scarified. A haemocult test is performed. The size of the colon is measured. Colitis is determined using a scoring system in H&E stains. mRNA expression in colon samples is analyzed by RT-qPCR.
substance,measurement,setting,value
H-Phe-Pro-[Aib]-OH [Example 13],"mRNA expression of IL-6, IL-17, IFN-γ and TNF-α",primary human T cells,reduced expression
same,gene expression of pro-inflammatory cytokines,[1],reduced expression
same,"mRNA expression of IL-6, IL-17, IFN-γ and TNF-α",primary murine T cells,reduced expression
same,colon size,C57BL/6 mice,partly normalized
same,disease in histology,C57BL/6 mice,amelioration
same,"mRNA expression of LY-6G, MPO, IFN-γ, IL-6 and TNF-α (colon)",C57BL/6 mice; compared to vehicle control,reduced
same,weight loss,C57BL/6 mice; compared to vehicle control,decreased
